Entries after “also recorded” stand apart in the source; their conditions may differ. Where two headings read alike, the source gives them in different places.
Conditions: for Overall safety and tolerability: single doses 25-500 mg, multiple doses 25-200 mg for 14 days
Method: A randomized, double-blind, placebo-controlled trial conducted in healthy volunteers. […] Written informed consent was obtained from all participants.
Following completion of each dose cohort in both parts of the study, a safety monitoring committee (SMC) decided whether protocol-defined dose escalation to the next level was appropriate to a maximum of 500 mg in Part 1, or to the highest safe and tolerated dose or highest dose from Part 1 in Part 2, based on all safety data and other available data (including PK and PD data). […] Other safety data (e.g., hematology parameters) were also taken into consideration for dose escalation decisions as a matter of course.
TEAEs and SAEs were recorded from time of informed consent until study completion. […] Assessment of severity considered the Toxicity Grading Scale for Healthy Adult and Adolescent Volunteers Enrolled in Preventative Vaccine Clinical Trials. Data were summarized using descriptive statistics.

C=CC(=O)N1CCC(CNc2ncnc(N)c2-c2ccc(Oc3ccccc3)cc2)CC1 [Evobrutinib, 1-(4-(((6-amino-5-(4-phenoxyphenyl)pyrimidin-4-yl)amino)methyl)piperidin-1-yl)prop-2-en-1-one]
Dry eye, subjects (Part 1, single dose 100 mg): 0 (0.0) n (%)
Dry mouth, subjects (Part 1, single dose 100 mg): 0 (0.0) n (%)
Dyspepsia, subjects (Part 1, single dose 100 mg): 0 (0.0) n (%)
Excoriation, subjects (Part 1, single dose 100 mg): 0 (0.0) n (%)
Headache, subjects (Part 1, single dose 100 mg): 0 (0.0) n (%)
Lipase increased, subjects (Part 1, single dose 100 mg): 0 (0.0) n (%)
Multiple injuries, subjects (Part 1, single dose 100 mg): 0 (0.0) n (%)
Nasal congestion, number of TEAEs (Part 1, single dose 100 mg): [1]
Nasal congestion, subjects (Part 1, single dose 100 mg): 1 (16.7) n (%)
Noncardiac chest pain, subjects (Part 1, single dose 100 mg): 0 (0.0) n (%)
Odynophagia, subjects (Part 1, single dose 100 mg): 0 (0.0) n (%)
Overall total TEAEs, subjects (Part 1, single dose 100 mg): 1 (16.7) n (%)
Overall total, number of TEAEs (Part 1, single dose 100 mg): [1]
Upper respiratory tract infection, subjects (Part 1, single dose 100 mg): 0 (0.0) n (%)
Abdominal pain, subjects (Part 1, single dose 200 mg): 0 (0.0) n (%)
Amylase increased, number of TEAEs (Part 1, single dose 200 mg): [1]
Amylase increased, subjects (Part 1, single dose 200 mg): 1 (16.7) n (%)
Application site pruritus (due to ECG stickers), subjects (Part 1, single dose 200 mg): 0 (0.0) n (%)
Back pain, subjects (Part 1, single dose 200 mg): 0 (0.0) n (%)
Contact dermatitis, subjects (Part 1, single dose 200 mg): 0 (0.0) n (%)
Dizziness, number of TEAEs (Part 1, single dose 200 mg): [1]
Dizziness, subjects (Part 1, single dose 200 mg): 1 (16.7) n (%)
Dry eye, subjects (Part 1, single dose 200 mg): 0 (0.0) n (%)
Dry mouth, subjects (Part 1, single dose 200 mg): 0 (0.0) n (%)
Dyspepsia, subjects (Part 1, single dose 200 mg): 0 (0.0) n (%)
Excoriation, number of TEAEs (Part 1, single dose 200 mg): [1]
Excoriation, subjects (Part 1, single dose 200 mg): 1 (16.7) n (%)
Headache, subjects (Part 1, single dose 200 mg): 0 (0.0) n (%)
Lipase increased, number of TEAEs (Part 1, single dose 200 mg): [1]
Lipase increased, subjects (Part 1, single dose 200 mg): 1 (16.7) n (%)
Multiple injuries, subjects (Part 1, single dose 200 mg): 0 (0.0) n (%)
Nasal congestion, subjects (Part 1, single dose 200 mg): 0 (0.0) n (%)
Noncardiac chest pain, subjects (Part 1, single dose 200 mg): 0 (0.0) n (%)
Odynophagia, subjects (Part 1, single dose 200 mg): 0 (0.0) n (%)
Overall total TEAEs, subjects (Part 1, single dose 200 mg): 2 (33.3) n (%)
Overall total, number of TEAEs (Part 1, single dose 200 mg): [4]
Upper respiratory tract infection, subjects (Part 1, single dose 200 mg): 0 (0.0) n (%)
Abdominal pain, subjects (Part 1, single dose 350 mg): 0 (0.0) n (%)
Amylase increased, subjects (Part 1, single dose 350 mg): 0 (0.0) n (%)
Application site pruritus (due to ECG stickers), subjects (Part 1, single dose 350 mg): 0 (0.0) n (%)
Back pain, subjects (Part 1, single dose 350 mg): 0 (0.0) n (%)
Contact dermatitis, subjects (Part 1, single dose 350 mg): 0 (0.0) n (%)
Dizziness, subjects (Part 1, single dose 350 mg): 0 (0.0) n (%)
Dry eye, subjects (Part 1, single dose 350 mg): 0 (0.0) n (%)
Dry mouth, subjects (Part 1, single dose 350 mg): 0 (0.0) n (%)
Dyspepsia, subjects (Part 1, single dose 350 mg): 0 (0.0) n (%)
Excoriation, subjects (Part 1, single dose 350 mg): 0 (0.0) n (%)
Headache, subjects (Part 1, single dose 350 mg): 0 (0.0) n (%)
Lipase increased, subjects (Part 1, single dose 350 mg): 0 (0.0) n (%)
Multiple injuries, number of TEAEs (Part 1, single dose 350 mg): [1]
Multiple injuries, subjects (Part 1, single dose 350 mg): 1 (16.7) n (%)
Nasal congestion, subjects (Part 1, single dose 350 mg): 0 (0.0) n (%)
Noncardiac chest pain, subjects (Part 1, single dose 350 mg): 0 (0.0) n (%)
Odynophagia, subjects (Part 1, single dose 350 mg): 0 (0.0) n (%)
Overall total TEAEs, subjects (Part 1, single dose 350 mg): 1 (16.7) n (%)
Overall total, number of TEAEs (Part 1, single dose 350 mg): [1]
Upper respiratory tract infection, subjects (Part 1, single dose 350 mg): 0 (0.0) n (%)
Abdominal pain, subjects (Part 1, single dose 500 mg): 0 (0.0) n (%)
Amylase increased, subjects (Part 1, single dose 500 mg): 0 (0.0) n (%)
Application site pruritus (due to ECG stickers), subjects (Part 1, single dose 500 mg): 0 (0.0) n (%)
Back pain, subjects (Part 1, single dose 500 mg): 0 (0.0) n (%)
Contact dermatitis, subjects (Part 1, single dose 500 mg): 0 (0.0) n (%)
Dizziness, subjects (Part 1, single dose 500 mg): 0 (0.0) n (%)
Dry eye, number of TEAEs (Part 1, single dose 500 mg): [1]
Dry eye, subjects (Part 1, single dose 500 mg): 1 (16.7) n (%)
Dry mouth, subjects (Part 1, single dose 500 mg): 0 (0.0) n (%)
Dyspepsia, subjects (Part 1, single dose 500 mg): 0 (0.0) n (%)
Excoriation, subjects (Part 1, single dose 500 mg): 0 (0.0) n (%)
Headache, number of TEAEs (Part 1, single dose 500 mg): [2]
Headache, subjects (Part 1, single dose 500 mg): 1 (16.7) n (%)
Lipase increased, subjects (Part 1, single dose 500 mg): 0 (0.0) n (%)
Multiple injuries, subjects (Part 1, single dose 500 mg): 0 (0.0) n (%)
Nasal congestion, subjects (Part 1, single dose 500 mg): 0 (0.0) n (%)
Noncardiac chest pain, subjects (Part 1, single dose 500 mg): 0 (0.0) n (%)
Odynophagia, number of TEAEs (Part 1, single dose 500 mg): [1]
Odynophagia, subjects (Part 1, single dose 500 mg): 1 (16.7) n (%)
Overall total TEAEs, subjects (Part 1, single dose 500 mg): 2 (33.3) n (%)
Overall total, number of TEAEs (Part 1, single dose 500 mg): [3]
Upper respiratory tract infection, subjects (Part 1, single dose 500 mg): 0 (0.0) n (%)
Subjects with TEAEs (Part 1, single dosing, all evobrutinib doses): 25%
TEAEs leading to discontinuation; trends in vital signs, ECGs, laboratory values, IgG subclasses (either part of the study): no TEAEs leading to discontinuation and no clinically significant trends in vital signs, ECGs, laboratory values or immunoglobulin G (IgG) subclasses
SAE of multi-trauma due to an automobile accident, relation to study drug (one subject, 350 mg single ascending dose cohort, 7 days after administration): unrelated to the study drug
Deaths or serious adverse events (SAEs) related to treatment (single and multiple dosing (Parts 1 and 2)): no deaths or serious adverse events (SAEs) related to treatment
Overall safety and tolerability: well tolerated
Overall safety and tolerability (listed as evobrutinib): safe and well tolerated and no non-tolerated dose could be defined; also recorded: safe and well tolerated
